Measured values published in patent US20230042729A1, “PEPTIDE CONSTRUCTS AND COMPOSITIONS” (DIET4LIFE APS, priority 2019, published 2023).
No end group written: not given here.

How the values were obtained:
murine intestinal cells = murine intestinal cells (Mus musculus, UniProt O88319); assay: Ca2+ flux / calcium response assay (cell signaling activity); assay type: cell-based
Protocol: Ca^2+ Flux Assay/Calcium Response Assay:
Elevation of intracellular calcium level was measured using the fluorescent calcium chelating dye Fluo-4 AM (ThermoFischer Scientific, Denmark). Briefly, cells were grown as a monolayer in 96-well tissue culture plates (Sarstedt, Germany) to near confluence in appropriate growth medium as described in the cell culture section.
All test compounds were dissolved in water, and then diluted in 1×HBSS containing 25 mM HEPES (pH 7.4), 1% BSA and 2% ink. […]

[1] = Stability of peptides in intestine homogenate, remaining activity read in intestinal cells; assay type: in vitro ADME, mice; conditions: for Stability in intestine (activity remaining): octapeptides, % activity left after 30 min incubation in intestine homogenate at 37° C.
Protocol: Small intestines from 20 Swiss-Webster males were homogenized in 350 ml Dulbecco's phosphate-buffered saline (PBS) (pH 7.4) (ThermoFischer Scientific, Denmark) with a IKA® basic 18 Ultra-Turrax tissue homogenizer set a speed 5 followed by filtration using 100 μm nylon mesh filter. Protein concentration was 6 mg/ml using the bicinconinic acid assay (ThermoFischer Scientific, Denmark) and bovine serum albumin as standard. The intestine homogenate was diluted 10 times in HBSS containing 25 mM HEPES (pH 7.4), and further diluted 30×, 90×, 270×, 810× or 2430× before incubation with peptides. All solutions were prewarmed to 37° C. before mixing with peptide solutions.
Peptides were incubated at 10^−5 M with dilutions of small intestine homogenate at 37° C. for 90 minutes with shaking. Reactions were stopped by addition of 1 M phosphoric acid (final 0.4 M, pH˜1.2). Each peptide incubation mix was then neutralized with NaOH to pH 7.2-7.4 and immediately tested for activity in intestinal cells. Control for zero degradation, i.e. addition of 1 M phosphoric acid prior to addition of intestine homogenate, was included for each peptide. […]
(§1) The 20 hexapeptides with systematic N-terminal substitutions (X-KPYIL) (Schafer-N, Denmark) and NT (8-13) was incubated at 10^−6 M in either FBS for 10 minutes or with 270× diluted intestinal homogenate for 30 minutes at 37° C. with shaking. The degradation was stopped with 1 M phosphoric acid. Peptide solutions were neutralized with NaOH (pH 7.2-7.4), diluted and immediately tested for bioactivity using murine intestinal cells. Determination of EC50 for stimulation of cells allowed calculation of recovered peptide.

[2] = Stability of peptides in serum, remaining activity read in intestinal cells; assay type: in vitro ADME, Bovine; conditions: for Stability in serum (activity remaining): octapeptides, fraction of peptide activity left after 10 min of incubation in serum at 37° C. compared with undigested sample
Protocol: All peptides were incubated at 10^−5 M with Fetal Bovine Serum (FBS; final concentration of 66.7%) (Sigma Aldrich, Denmark) at 37° C. for 3 hours. The peptide degradation was terminated using 1 M phosphoric acid (final 0.4 M, pH˜1.2) and neutralized to pH 7.2-7.4 with NaOH before testing activity in intestinal cells. As for small intestine homogenates, a zero degradation control was included for each peptide.
DC7-2, NT, DKPYIL and NT-(8-13) (final concentration of 10^−6 M) were incubated either with FBS or with 270× diluted intestinal homogenate at 37° C. for various time points with shaking. Degradation was stopped with 1 M phosphoric acid and the samples were subsequently neutralized and immediately tested with intestinal cells as described above. Control for zero degradation was included for each peptide as above.
as §1

[3] = target: T1, trypsin inhibitor, T9128 from soybean (UniProt P01070)
T1 sequence: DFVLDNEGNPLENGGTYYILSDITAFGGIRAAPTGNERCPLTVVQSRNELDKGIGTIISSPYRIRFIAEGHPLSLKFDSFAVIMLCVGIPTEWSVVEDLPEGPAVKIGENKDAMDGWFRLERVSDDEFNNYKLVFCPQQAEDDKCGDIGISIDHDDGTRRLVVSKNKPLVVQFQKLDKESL

[4] = target: trypsin inhibitor T9253 from chicken egg white (UniProt P01005)
Sequence of trypsin inhibitor T9253 from chicken egg white (P01005 25-210): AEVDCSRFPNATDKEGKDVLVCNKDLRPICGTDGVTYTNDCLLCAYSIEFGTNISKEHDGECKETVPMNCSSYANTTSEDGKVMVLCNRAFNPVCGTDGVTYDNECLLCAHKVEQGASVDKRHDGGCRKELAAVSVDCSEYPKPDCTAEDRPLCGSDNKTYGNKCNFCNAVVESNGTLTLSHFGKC

Sequence of murine intestinal cells (O88319 whole entry): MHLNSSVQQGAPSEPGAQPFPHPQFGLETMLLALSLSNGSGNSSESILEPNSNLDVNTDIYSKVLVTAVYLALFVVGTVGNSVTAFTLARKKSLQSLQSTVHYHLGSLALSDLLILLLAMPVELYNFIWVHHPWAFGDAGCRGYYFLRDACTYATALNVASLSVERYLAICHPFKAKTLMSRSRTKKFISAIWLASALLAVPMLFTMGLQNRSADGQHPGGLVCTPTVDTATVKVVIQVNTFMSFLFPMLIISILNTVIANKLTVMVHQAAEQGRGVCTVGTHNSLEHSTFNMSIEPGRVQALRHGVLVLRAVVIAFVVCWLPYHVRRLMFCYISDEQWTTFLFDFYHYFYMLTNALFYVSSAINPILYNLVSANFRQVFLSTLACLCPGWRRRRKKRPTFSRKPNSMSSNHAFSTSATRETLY

Compound	EC50 (murine intestinal cells) [nM]	other results
CC[C@H](C)[C@H](NC(=O)[C@H](Cc1ccc(O)cc1)NC(=O)[C@@H]1CCCN1C(=O)[C@@H](N)CCCNC(=N)N)C(=O)N[C@@H](CC(C)C)C(=O)O [Peptide 36010, R PYIL]	1.18	–
ADKPYIL [Peptide 36016, A DKPYIL]	3.52	–
APYIL [Peptide 35996, A PYIL]	11.8	–
CDKPYIL [Peptide 36017, C DKPYIL]	7.72	–
CPYIL [Peptide 35997, C PYIL]	69.9	–
CSDKPYIL [Peptide 36037, C SDKPYIL]	5.44	Stability in intestine (activity remaining) [1]: 14.0%; Stability in serum (activity remaining) [2]: 0.0963
DDKPYIL [Peptide 36018, D DKPYIL]	10.5	–
DKPYIL [Peptide 35978, D KPYIL]	–	stability in intestine homogenate compared to neurotensin (8-13) RRPYIL [1]: 100-1000 ×; stability in serum compared to neurotensin (8-13) RRPYIL [2]: around 100 times
DPYIL [Peptide 35998, D PYIL]	158	–
DSDKPYIL [Peptide 36038, D SDKPYIL]	6.15	Stability in intestine (activity remaining) [1]: 29.9%; Stability in serum (activity remaining) [2]: 0.0947
EDKPYIL [Peptide 36019, E DKPYIL]	3.96	–
EPYIL [Peptide 35999, E PYIL]	102	–
ESDKPYIL [Peptide 36039, E SDKPYIL]	4.82	Stability in intestine (activity remaining) [1]: 23.0%; Stability in serum (activity remaining) [2]: 0.0964
FDKPYIL [Peptide 36020, F DKPYIL]	9.52	–
FPYIL [Peptide 36000, F PYIL]	19.5	–
FSDKPYIL [Peptide 36040, F SDKPYIL]	3.85	Stability in intestine (activity remaining) [1]: 3.4%; Stability in serum (activity remaining) [2]: 0.0944
GDKPYIL [Peptide 36021, G DKPYIL]	2.91	–
GPYIL [Peptide 36001, G PYIL]	17.4	–
GSDKPYIL [Peptide 36041, G SDKPYIL]	4.07	Stability in intestine (activity remaining) [1]: 10.3%; Stability in serum (activity remaining) [2]: 0.0912
HDKPYIL [Peptide 36022, H DKPYIL]	2.65	–
HPYIL [Peptide 36002, H PYIL]	35.6	–
HSDKPYIL [Peptide 36042, H SDKPYIL]	3.63	Stability in intestine (activity remaining) [1]: 6.4%; Stability in serum (activity remaining) [2]: 0.0980
IDKPYIL [Peptide 36023, I DKPYIL]	4.77	–
IKPYIL [Peptide 35983, I KPYIL]	0.24	–

Compound	EC50 (murine intestinal cells) [nM]	other results
IPYIL [Peptide 36003, 1 PYIL]	23.8	–
ISDKPYIL [Peptide 36043, I SDKPYIL]	6.87	Stability in intestine (activity remaining) [1]: 6.0%; Stability in serum (activity remaining) [2]: 0.0956
KDKPYIL [Peptide 36024, K DKPYIL]	11.2	–
KPYIL [Peptide 36004, K PYIL]	7.71	–
KSDKPYIL [Peptide 36044, K SDKPYIL]	10.7	Stability in intestine (activity remaining) [1]: 6.6%; Stability in serum (activity remaining) [2]: 0.0527
LDKPYIL [Peptide 36025, L DKPYIL]	6.41	–
LKPYIL [Peptide 35985, L KPYIL]	0.33	–
LPYIL [Peptide 36005, L PYIL]	41	–
LSDKPYIL [Peptide 36045, L SDKPYIL]	8.06	Stability in intestine (activity remaining) [1]: 7.9%; Stability in serum (activity remaining) [2]: 0.0917
MDKPYIL [Peptide 36026, M DKPYIL]	6.08	–
MKPYIL [Peptide 35986, M KPYIL]	0.388	–
MPYIL [Peptide 36006, M PYIL]	16.2	–
MSDKPYIL [Peptide 36046, M SDKPYIL]	4.88	Stability in intestine (activity remaining) [1]: 3.8%; Stability in serum (activity remaining) [2]: 0.0762
NDKPYIL [Peptide 36027, N DKPYIL]	5.92	–
NKPYIL [Peptide 35987, N KPYIL]	0.5	–
NPYIL [Peptide 36007, N PYIL]	39.3	–
NSDKPYIL [Peptide 36047, N SDKPYIL]	4.41	Stability in intestine (activity remaining) [1]: 3.9%; Stability in serum (activity remaining) [2]: 0.0872
PDKPYIL [Peptide 36028, P DKPYIL]	4.67	–
PKPYIL [Peptide 35988, P KPYIL]	0.232	–
PPYIL [Peptide 36008, P PYIL]	9.61	–
PSDKPYIL [Peptide 36048, P SDKPYIL]	4.14	Stability in intestine (activity remaining) [1]: 4.6%; Stability in serum (activity remaining) [2]: 0.0772
QDKPYIL [Peptide 36029, Q DKPYIL]	4.97	–
QKPYIL [Peptide 35989, Q KPYIL]	0.378	–
QPYIL [Peptide 36009, Q PYIL]	20.5	–

Compound	EC50 (murine intestinal cells) [nM]	other results
QSDKPYIL [Peptide 36049, Q SDKPYIL]	4.01	Stability in intestine (activity remaining) [1]: 8.8%; Stability in serum (activity remaining) [2]: 0.0742
RDKPYIL [Peptide 36030, R DKPYIL]	4.68	–
RSDKPYIL [Peptide 36050, R SDKPYIL]	4.01	Stability in intestine (activity remaining) [1]: 2.6%; Stability in serum (activity remaining) [2]: 0.0735
SDKPYIL [Peptide 36031, S DKPYIL]	5	–
SKPYIL [Peptide 35991, S KPYIL]	1.15	–
SPYIL [Peptide 36011, S PYIL]	22.5	–
SSDKPYIL [Peptide 36051, S SDKPYIL]	4.27	Stability in intestine (activity remaining) [1]: 19.5%; Stability in serum (activity remaining) [2]: 0.0609
TDKPYIL [Peptide 36032, T DKPYIL]	5.61	–
TKPYIL [Peptide 35992, T KPYIL]	1.16	–
TPYIL [Peptide 36012, T PYIL]	43.6	–
TSDKPYIL [Peptide 36052, T SDKPYIL]	5.63	Stability in intestine (activity remaining) [1]: 8.4%; Stability in serum (activity remaining) [2]: 0.0535
VDKPYIL [Peptide 36033, V DKPYIL]	4.94	–
VKPYIL [Peptide 35993, V KPYIL]	1.17	–
VPYIL [Peptide 36013, V PYIL]	37.8	–
VSDKPYIL [Peptide 36053, V SDKPYIL]	5.15	Stability in intestine (activity remaining) [1]: 5.6%; Stability in serum (activity remaining) [2]: 0.0488
WDKPYIL [Peptide 36034, W DKPYIL]	14.1	–
WKPYIL [Peptide 35994, W KPYIL]	5.58	–
WSDKPYIL [Peptide 36054, W SDKPYIL]	8.87	Stability in intestine (activity remaining) [1]: 3.6%; Stability in serum (activity remaining) [2]: 0.0426
YDKPYIL [Peptide 36035, Y DKPYIL]	6.83	–
YKPYIL [Peptide 35995, Y KPYIL]	3.34	–
YPYIL [Peptide 36015, Y PYIL]	140	–
YSDKPYIL [Peptide 36055, Y SDKPYIL]	5.92	Stability in intestine (activity remaining) [1]: 3.0%; Stability in serum (activity remaining) [2]: 0.0491
trypsin in intestine homogenate (mouse small intestine)	–	trypsin activity (conversion of L-BAPA, slope of kinetic absorbance) [3]: Intestinal and pancreatic trypsin activity was inhibited in a dose-dependent manner by two specific trypsin inhibitors from soybean and chicken egg white, respectively; trypsin activity (conversion of L-BAPA, slope of kinetic absorbance) [4]: Intestinal and pancreatic trypsin activity was inhibited in a dose-dependent manner by two specific trypsin inhibitors from soybean and chicken egg white, respectively
